Measured values: patent publication US6461866B1, “In vitro photodynamic therapy using non laser light” (Photo Therapeutics Limited, priority 1992, dated 2002)

Tested on: Chinese hamster ovary (CHO) cells
Assay: In vitro PDT: survival of CHO cells incubated with HpD after irradiation
Type: cell-based
Protocol: In vitro work carried out using Chinese hamster ovary (CHO) cells incubated with […] HpD for 24 hours. Irradiation was centered on 630±12 nm for three light sources, namely a high intensity continuous wave (CW) lamp (non-laser light source in accordance with the present invention using 300 W Xenon lamp), secondly a continuous wave 20 W argon ion pumped dye laser and pulsed 10 W copper vapour pumped dye laser, all with fibre delivery. Light doses ranged from 0 to 2.5 J/cm^2 with light fluences ranging from 20 to 200 mW/cm^2. A light only control was taken at 275 mW/cm^2 for energy doses of 0 to 100 J/cm^2. Following irradiation, cells were plated out, stained and counted for survival.
FIGS. 2a, 2b, 2c show photosensitiser (HpD) absorption spectrum, cell kill efficacy spectrum and overlapping HpD/lamp spectra. PBS refers to phosphate buffered saline; S.F. means survival fraction.
FIGS. 3a, 3b show cell survival curves obtained at 20 & 50 mW/cm^2 respectively with highest kill efficiency achieved by the argon ion laser, followed by the copper vapour laser. The lamp kill efficiency of the light source in accordance with the present invention, though similar to the lasers (approx 70%) would be increased by reducing its emission bandwidth from 30 nm.

haematoporhyrin derivative [HpD]
lamp kill efficiency (cell survival curves) (CHO cells, 10 pg/ml HpD for 24 hours, 300 W Xenon lamp at 630±12 nm, 20 & 50 mW/cm^2, similar to the lasers): approx 70% | photo-inactivation of cancerous CHO cells in vitro (HpD with impinging visible light at 630±12 nm from the non-laser light source): proven photo-inactivation
